# From PubChem BioAssay (NCI)
#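 Protocol summary: plate cells (96-well), add compound at 5 concentrations, incubate 48 h, interpolate endpoints linearly. The concentration for 50% growth inhibition is given as GI50. TGI denotes the concentration required for complete inhibition of growth.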
# Tests used:
# Assay in all cases: growth of human tumour cells (NCI), 48 h
# HL-60(TB) leukemia = system: HL-60(TB) leukemia
# HT29 colon = system: HT29 colon
# CCRF-CEM leukemia = system: CCRF-CEM leukemia
# MDA-MB-435 = system: MDA-MB-435
# MOLT-4 leukemia = system: MOLT-4 leukemia
# SF-539 CNS = system: SF-539 CNS
# MCF7 breast = system: MCF7 breast
# MALME-3M melanoma = system: MALME-3M melanoma
# CAKI-1 renal = system: CAKI-1 renal
# M14 melanoma = system: M14 melanoma
# SNB-75 CNS = system: SNB-75 CNS
# SNB-19 CNS = system: SNB-19 CNS
# EKVX NSCLC = system: EKVX NSCLC
# OVCAR-5 ovarian = system: OVCAR-5 ovarian
# ACHN renal = system: ACHN renal
# OVCAR-4 ovarian = system: OVCAR-4 ovarian
# LOX IMVI melanoma = system: LOX IMVI melanoma
# HCC-2998 colon = system: HCC-2998 colon
# NCI/ADR-RES ovarian = system: NCI/ADR-RES ovarian
# SK-OV-3 ovarian = system: SK-OV-3 ovarian
# A498 renal = system: A498 renal
# RXF 393 renal = system: RXF 393 renal
# SF-295 CNS = system: SF-295 CNS
# SK-MEL-28 melanoma = system: SK-MEL-28 melanoma
# OVCAR-8 ovarian = system: OVCAR-8 ovarian
# SK-MEL-2 melanoma = system: SK-MEL-2 melanoma
# HOP-62 NSCLC = system: HOP-62 NSCLC
# BT-549 breast = system: BT-549 breast
# DU-145 prostate = system: DU-145 prostate
# SW-620 colon = system: SW-620 colon
structure (smiles),measurement,setting,value
C/C=C/C/C=C/CCC(=O)[C@H]1O[C@H]1C(N)=O,GI50,HL-60(TB) leukemia,5.19 µM
same,TGI,HL-60(TB) leukemia,25.2 µM
same,TGI,HT29 colon,31.8 µM
same,GI50,CCRF-CEM leukemia,6.02 µM
same,TGI,CCRF-CEM leukemia,62.3 µM
same,GI50,MDA-MB-435,11.6 µM
same,TGI,MDA-MB-435,25 µM
same,GI50,MOLT-4 leukemia,8.56 µM
same,TGI,MOLT-4 leukemia,52 µM
same,TGI,SF-539 CNS,31.8 µM
same,GI50,MCF7 breast,12.6 µM
same,TGI,MCF7 breast,26.1 µM
same,GI50,MALME-3M melanoma,13.7 µM
same,TGI,MALME-3M melanoma,32.9 µM
same,GI50,CAKI-1 renal,13.4 µM
same,TGI,CAKI-1 renal,36.5 µM
same,GI50,M14 melanoma,13.3 µM
same,TGI,M14 melanoma,30 µM
same,GI50,SNB-75 CNS,10 µM
same,TGI,SNB-75 CNS,25 µM
same,GI50,SNB-19 CNS,14.5 µM
same,TGI,SNB-19 CNS,29.5 µM
same,GI50,EKVX NSCLC,14.1 µM
same,TGI,EKVX NSCLC,28.9 µM
same,GI50,OVCAR-5 ovarian,16.8 µM
same,TGI,OVCAR-5 ovarian,31.4 µM
same,TGI,ACHN renal,26.9 µM
same,TGI,OVCAR-4 ovarian,26.1 µM
same,GI50,LOX IMVI melanoma,8.38 µM
same,TGI,LOX IMVI melanoma,21.5 µM
same,GI50,HCC-2998 colon,15 µM
same,TGI,HCC-2998 colon,28.5 µM
same,TGI,NCI/ADR-RES ovarian,> 100 µM
same,GI50,SK-OV-3 ovarian,27 µM
same,TGI,SK-OV-3 ovarian,> 72.7 µM
same,GI50,A498 renal,17.4 µM
same,TGI,A498 renal,43.7 µM
same,GI50,RXF 393 renal,5.07 µM
same,TGI,RXF 393 renal,19.1 µM
same,TGI,SF-295 CNS,34.8 µM
same,TGI,SK-MEL-28 melanoma,28.3 µM
same,GI50,OVCAR-8 ovarian,17.7 µM
same,TGI,OVCAR-8 ovarian,> 74.3 µM
same,GI50,SK-MEL-2 melanoma,15.9 µM
same,TGI,SK-MEL-2 melanoma,32.5 µM
same,GI50,HOP-62 NSCLC,13 µM
same,TGI,HOP-62 NSCLC,28.2 µM
same,TGI,BT-549 breast,25.3 µM
same,GI50,DU-145 prostate,13.7 µM
same,TGI,DU-145 prostate,27.1 µM
same,GI50,SW-620 colon,11.9 µM
same,TGI,SW-620 colon,27.9 µM
